PubChem BioAssay (NCI)
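The compound was tested at five concentrations on cells cultured in 96-well plates, with a 48-hour exposure period. At the GI50, growth is halved. At the TGI there is no net growth.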

What was measured:
Experiment in all cases: DTP human tumour cell line panel, 48 h; in the data active = GI50 below about 0.43 µM; inactive = the rest
OVCAR-3 ovarian = test system: OVCAR-3 ovarian
SK-MEL-28 melanoma = test system: SK-MEL-28 melanoma
EKVX NSCLC = test system: EKVX NSCLC
K-562 leukemia = test system: K-562 leukemia
COLO 205 colon = test system: COLO 205 colon
HOP-92 NSCLC = test system: HOP-92 NSCLC
HS 578T breast = test system: HS 578T breast
RPMI-8226 leukemia = test system: RPMI-8226 leukemia
SK-MEL-5 melanoma = test system: SK-MEL-5 melanoma
U251 CNS = test system: U251 CNS
HL-60(TB) leukemia = test system: HL-60(TB) leukemia
NCI-H226 lung = test system: NCI-H226 lung
UO-31 renal = test system: UO-31 renal
MOLT-4 leukemia = test system: MOLT-4 leukemia
BT-549 breast = test system: BT-549 breast
TK-10 renal = test system: TK-10 renal
MDA-MB-231 breast = test system: MDA-MB-231 breast
HCT-15 colon = test system: HCT-15 colon
HCC-2998 colon = test system: HCC-2998 colon
IGROV1 ovarian = test system: IGROV1 ovarian
SF-268 CNS = test system: SF-268 CNS
MDA-MB-435 = test system: MDA-MB-435
786-0 renal = test system: 786-0 renal
SNB-19 CNS = test system: SNB-19 CNS
UACC-62 melanoma = test system: UACC-62 melanoma
A549 NSCLC = test system: A549 NSCLC
SK-MEL-2 melanoma = test system: SK-MEL-2 melanoma
HCT-116 colon = test system: HCT-116 colon
SNB-75 CNS = test system: SNB-75 CNS
OVCAR-8 ovarian = test system: OVCAR-8 ovarian
MCF7 breast = test system: MCF7 breast
NCI/ADR-RES ovarian = test system: NCI/ADR-RES ovarian
A498 renal = test system: A498 renal
MALME-3M melanoma = test system: MALME-3M melanoma
LOX IMVI melanoma = test system: LOX IMVI melanoma
NCI-H460 lung = test system: NCI-H460 lung
RXF 393 renal = test system: RXF 393 renal
SF-295 CNS = test system: SF-295 CNS
SF-539 CNS = test system: SF-539 CNS
OVCAR-4 ovarian = test system: OVCAR-4 ovarian
SN12C renal = test system: SN12C renal
SW-620 colon = test system: SW-620 colon
HOP-62 NSCLC = test system: HOP-62 NSCLC
DU-145 prostate = test system: DU-145 prostate
KM12 colon = test system: KM12 colon
CCRF-CEM leukemia = test system: CCRF-CEM leukemia
HT29 colon = test system: HT29 colon
UACC-257 melanoma = test system: UACC-257 melanoma
SK-OV-3 ovarian = test system: SK-OV-3 ovarian
SR leukemia = test system: SR leukemia
OVCAR-5 ovarian = test system: OVCAR-5 ovarian
PC-3 prostate = test system: PC-3 prostate
ACHN renal = test system: ACHN renal
NCI-H522 lung = test system: NCI-H522 lung
NCI-H23 lung = test system: NCI-H23 lung
CAKI-1 renal = test system: CAKI-1 renal
T-47D breast = test system: T-47D breast
M14 melanoma = test system: M14 melanoma

Cc1ccc(N=C2CSc3nnc(-c4csc5c4CCCC5)n3N2)cc1
0.473 µM: TGI (SF-539 CNS)
> 50 µM: TGI (SK-MEL-28 melanoma) | TGI (EKVX NSCLC) | TGI (K-562 leukemia) | TGI (COLO 205 colon) | TGI (HOP-92 NSCLC) | TGI (RPMI-8226 leukemia) | TGI (SK-MEL-5 melanoma) | TGI (U251 CNS) | TGI (NCI-H226 lung) | TGI (UO-31 renal) | TGI (MOLT-4 leukemia) | TGI (BT-549 breast) | TGI (TK-10 renal) | TGI (MDA-MB-231 breast) | TGI (HCT-15 colon) | TGI (HCC-2998 colon) | TGI (IGROV1 ovarian) | TGI (SF-268 CNS) | TGI (786-0 renal) | TGI (SNB-19 CNS) | TGI (UACC-62 melanoma) | TGI (A549 NSCLC) | TGI (SK-MEL-2 melanoma) | TGI (HCT-116 colon) | TGI (OVCAR-8 ovarian) | TGI (MCF7 breast) | TGI (NCI/ADR-RES ovarian) | TGI (MALME-3M melanoma) | TGI (LOX IMVI melanoma) | TGI (NCI-H460 lung) | TGI (RXF 393 renal) | TGI (OVCAR-4 ovarian) | TGI (SN12C renal) | TGI (SW-620 colon) | TGI (HOP-62 NSCLC) | TGI (DU-145 prostate) | TGI (KM12 colon) | TGI (CCRF-CEM leukemia) | TGI (HT29 colon) | TGI (UACC-257 melanoma) | TGI (SK-OV-3 ovarian) | TGI (SR leukemia) | TGI (OVCAR-5 ovarian) | TGI (PC-3 prostate) | TGI (ACHN renal) | TGI (NCI-H23 lung)
0.432 µM: TGI (NCI-H522 lung)
0.298 µM: TGI (HL-60(TB) leukemia)
inactive: GI50 (SK-MEL-28 melanoma) 8.24 µM | GI50 (HOP-92 NSCLC) 1.97 µM | GI50 (NCI-H226 lung) > 50 µM | GI50 (UO-31 renal) 0.43 µM | GI50 (BT-549 breast) 0.458 µM | GI50 (TK-10 renal) > 50 µM | GI50 (HCC-2998 colon) 1.31 µM | GI50 (IGROV1 ovarian) 0.446 µM | GI50 (SF-268 CNS) 0.561 µM | GI50 (MALME-3M melanoma) 26.5 µM | GI50 (OVCAR-4 ovarian) > 50 µM | GI50 (UACC-257 melanoma) > 50 µM | GI50 (OVCAR-5 ovarian) 0.932 µM | GI50 (ACHN renal) 2.94 µM
active: GI50 (OVCAR-3 ovarian) 0.162 µM | GI50 (EKVX NSCLC) 0.209 µM | GI50 (K-562 leukemia) 0.156 µM | GI50 (COLO 205 colon) 0.191 µM | GI50 (HS 578T breast) 0.168 µM | GI50 (RPMI-8226 leukemia) 0.203 µM | GI50 (SK-MEL-5 melanoma) 0.175 µM | GI50 (U251 CNS) 0.2 µM | GI50 (HL-60(TB) leukemia) 0.12 µM | GI50 (MOLT-4 leukemia) 0.213 µM | GI50 (MDA-MB-231 breast) 0.369 µM | GI50 (HCT-15 colon) 0.227 µM | GI50 (MDA-MB-435) 0.0894 µM | GI50 (786-0 renal) 0.297 µM | GI50 (SNB-19 CNS) 0.222 µM | GI50 (UACC-62 melanoma) 0.277 µM | GI50 (A549 NSCLC) 0.265 µM | GI50 (SK-MEL-2 melanoma) 0.221 µM | GI50 (HCT-116 colon) 0.225 µM | GI50 (SNB-75 CNS) 0.13 µM | GI50 (OVCAR-8 ovarian) 0.223 µM | GI50 (MCF7 breast) 0.165 µM | GI50 (NCI/ADR-RES ovarian) 0.167 µM | GI50 (A498 renal) 0.0988 µM | GI50 (LOX IMVI melanoma) 0.302 µM | GI50 (NCI-H460 lung) 0.181 µM | GI50 (RXF 393 renal) 0.162 µM | GI50 (SF-295 CNS) 0.148 µM | GI50 (SF-539 CNS) 0.131 µM | GI50 (SN12C renal) 0.406 µM | GI50 (SW-620 colon) 0.204 µM | GI50 (HOP-62 NSCLC) 0.24 µM | GI50 (DU-145 prostate) 0.209 µM | GI50 (KM12 colon) 0.226 µM | GI50 (CCRF-CEM leukemia) 0.158 µM | GI50 (HT29 colon) 0.175 µM | GI50 (SK-OV-3 ovarian) 0.271 µM | GI50 (SR leukemia) 0.179 µM | GI50 (PC-3 prostate) 0.27 µM | GI50 (NCI-H522 lung) 0.114 µM | GI50 (NCI-H23 lung) 0.295 µM
40.2 µM: TGI (HS 578T breast)
17.2 µM: TGI (SNB-75 CNS)
0.237 µM: TGI (MDA-MB-435)
0.412 µM: TGI (A498 renal)
7.75 µM: TGI (OVCAR-3 ovarian)
14 µM: TGI (SF-295 CNS)

Cc1ccc(S(=O)(=O)Oc2ccc3c4c(c(=O)oc3c2)CCCCC4)cc1
inactive: GI50 (SK-MEL-28 melanoma) > 100 µM | GI50 (K-562 leukemia) 3.51 µM | GI50 (COLO 205 colon) 4.05 µM | GI50 (HOP-92 NSCLC) 9.26 µM | GI50 (HS 578T breast) 96.2 µM | GI50 (RPMI-8226 leukemia) 4.55 µM | GI50 (SK-MEL-5 melanoma) 2.75 µM | GI50 (U251 CNS) > 100 µM | GI50 (NCI-H226 lung) 7.5 µM | GI50 (UO-31 renal) > 100 µM | GI50 (MOLT-4 leukemia) 6.16 µM | GI50 (BT-549 breast) 7.1 µM | GI50 (TK-10 renal) > 100 µM | GI50 (MDA-MB-231 breast) > 100 µM | GI50 (HCT-15 colon) 3.66 µM | GI50 (HCC-2998 colon) > 100 µM | GI50 (CAKI-1 renal) > 100 µM | GI50 (IGROV1 ovarian) > 100 µM | GI50 (SF-268 CNS) > 100 µM | GI50 (MDA-MB-435) > 100 µM | GI50 (T-47D breast) 4.37 µM | GI50 (786-0 renal) > 100 µM | GI50 (SNB-19 CNS) > 100 µM | GI50 (UACC-62 melanoma) 5.72 µM | GI50 (A549 NSCLC) > 100 µM | GI50 (SK-MEL-2 melanoma) > 100 µM | GI50 (HCT-116 colon) 6 µM | GI50 (SNB-75 CNS) 71.4 µM | GI50 (OVCAR-8 ovarian) > 100 µM | GI50 (MCF7 breast) 9.16 µM | GI50 (NCI/ADR-RES ovarian) 6.76 µM | GI50 (A498 renal) 6.21 µM | GI50 (MALME-3M melanoma) > 100 µM | GI50 (LOX IMVI melanoma) > 100 µM | GI50 (SF-295 CNS) > 100 µM | GI50 (SF-539 CNS) 6.77 µM | GI50 (OVCAR-4 ovarian) 7.11 µM | GI50 (SN12C renal) > 100 µM | GI50 (HOP-62 NSCLC) > 100 µM | GI50 (M14 melanoma) > 100 µM | GI50 (DU-145 prostate) > 100 µM | GI50 (KM12 colon) 7.16 µM | GI50 (CCRF-CEM leukemia) 5.18 µM | GI50 (HT29 colon) 4.06 µM | GI50 (SK-OV-3 ovarian) > 100 µM | GI50 (SR leukemia) 3.3 µM | GI50 (OVCAR-5 ovarian) > 100 µM | GI50 (PC-3 prostate) 4.26 µM | GI50 (ACHN renal) > 100 µM | GI50 (NCI-H522 lung) > 100 µM | GI50 (NCI-H23 lung) 8 µM
> 100 µM: TGI (SK-MEL-28 melanoma) | TGI (K-562 leukemia) | TGI (COLO 205 colon) | TGI (HOP-92 NSCLC) | TGI (HS 578T breast) | TGI (RPMI-8226 leukemia) | TGI (SK-MEL-5 melanoma) | TGI (U251 CNS) | TGI (NCI-H226 lung) | TGI (UO-31 renal) | TGI (MOLT-4 leukemia) | TGI (BT-549 breast) | TGI (TK-10 renal) | TGI (MDA-MB-231 breast) | TGI (HCT-15 colon) | TGI (HCC-2998 colon) | TGI (CAKI-1 renal) | TGI (IGROV1 ovarian) | TGI (SF-268 CNS) | TGI (MDA-MB-435) | TGI (T-47D breast) | TGI (786-0 renal) | TGI (SNB-19 CNS) | TGI (UACC-62 melanoma) | TGI (A549 NSCLC) | TGI (SK-MEL-2 melanoma) | TGI (HCT-116 colon) | TGI (SNB-75 CNS) | TGI (OVCAR-8 ovarian) | TGI (MCF7 breast) | TGI (NCI/ADR-RES ovarian) | TGI (A498 renal) | TGI (MALME-3M melanoma) | TGI (LOX IMVI melanoma) | TGI (SF-295 CNS) | TGI (SF-539 CNS) | TGI (OVCAR-4 ovarian) | TGI (SN12C renal) | TGI (HOP-62 NSCLC) | TGI (M14 melanoma) | TGI (DU-145 prostate) | TGI (KM12 colon) | TGI (CCRF-CEM leukemia) | TGI (HT29 colon) | TGI (SK-OV-3 ovarian) | TGI (SR leukemia) | TGI (OVCAR-5 ovarian) | TGI (PC-3 prostate) | TGI (ACHN renal) | TGI (NCI-H522 lung) | TGI (NCI-H23 lung)
